The source of these data is publication PMC12332266 (Frontiers in Pharmacology, 2025).

Read-outs that look alike come from different tables or passages of the source.

Series [1] deals with hiPSC-CM (iCell Cardiomyocytes^2). The series can be described thus: Intracellular miRNA expression by RT-qPCR in hiPSC-CM pellets after 72-hour treatment. To be noted: for fold induction at 0.3 µM / fold induction at 1 µM / fold induction at 3 µM / fold induction at 10 µM: Homo sapiens. On the procedure:
(§1) Culture media change was performed every 2 days.
Total RNA was extracted from hiPSC-CM using the miRNeasy 96 Kit (Qiagen, Hilden, Germany) following the manufacturer’s recommendations. After the extraction, RNA purity was assessed by NanoDrop™ 8000 Spectrophotometer (Thermo Fisher Scientific Inc.). 5–10 ng/μL of RNA per sample were reverse transcribed and pre-amplified by using the TaqMan™ Advanced miRNA cDNA Synthesis Kit (Thermo Fisher Scientific Inc.). The synthesized cDNA was used for RT-qPCR with selected TaqMan™ assays (Thermo Fischer Scientific Inc.). RT-qPCR was carried out following the Applied Biosciences TaqMan miRNA expression assay protocol on a ViiA7 instrument (Thermo Fisher Scientific, Inc.). […] Therefore, to maximize the number of drugs and concentrations, explored in the same study, we pooled the triplicates for intracellular profiling of miRNAs. Therefore, no statistical analysis was performed on the data of miRNA profiling in the pellets of hiPSC-CM.
Following RTCA CardioECR assessment, hiPSC-CM cell pellets were collected, and total RNA was extracted and purified to investigate miRNAs upregulation by RT-qPCR. […] For the initial assessment of intracellular miRNAs in 12 different treatments, encompassing various drug classes, we used a panel of 17 miRNAs, which we selected from the publicly available data focusing mainly on in vitro models and structural cardiotoxicants (Supplementary Table S2).
A general note: In qPCR the cycle at which signal appears reflects the starting amount.

The test system is the same in series [2]. The experiment in a line: RTCA CardioECR assessment (impedance and electrophysiology parameters). The conditions noted are these: for RTCA, MEC (CI) / RTCA, MEC (BR): change ≥20%, Table 2. The method, then: as §1
After seeding on fibronectin-coated xCELLigence ePlates (Agilent Technologies, Inc. Santa Clara, CA, USA), iCell^2 CM were monitored continuously through impedance electrodes. The following impedance parameters were measured: Cell Index (CI, measure of cell “health” and monolayer integrity), beating rate (BR) and amplitude (CI Amplitude, magnitude of contraction). Electrophysiology-like parameters (Field Potential Duration (FPD), considered as a surrogate for QT in in vivo studies, and Spike Amplitude (SA), depolarization induced by Na^+ channel opening) were measured starting from day 4–6, following the monolayer formation. […] All RTCA CardioECR data were double normalized (DMSO control and the baseline) with no further statistical group comparison for the normalized parameters. The variability of the data within the treatment groups was assessed by standard deviation.

For series [3] the following is noted: ref extensive literature search, cited from earlier work.
Where [4] appears, read: 72 h, read-out: hsa-miR-7-5p fold change.
Setting [5] is: 72 h, read-out: hsa-miR-29a-5p fold change.
Where [6] appears, read: 72 h, read-out: hsa-miR-146b-5p fold change.
The mark [7] stands for this setting: 72 h, read-out: hsa-miR-187-3p fold change.
Setting [8] is: hiPSC-CM, 72-hour treatment, lowest concentration causing at least 20% change from baseline.
Where [9] appears, read: hiPSC-CM, 72-hour treatment, at least 20% change, Supplementary Table 1.

`O=c1[nH]cc(F)c(=O)[nH]1` [5-FluoroUracil]: in series [1], the “intracellular miRNA upregulation in hiPSC-CM, in words” value was “smallest fold change”. Also, the fold induction at 0.3 µM in series [1] (setting [4]) is 0.7; in series [1] (setting [5]), 0.6; in series [1] (setting [6]), 0.6; in series [1] (setting [7]) it was 1.2. For the same compound, the fold induction at 1 µM in series [1] (setting [4]) turned out to be 0.5; in series [1] (setting [5]), 0.5; in series [1] (setting [6]), 0.3; in series [1] (setting [7]) it was 1.2. Further, the fold induction at 3 µM in series [1] (setting [4]) was found to be 0.5; in series [1] (setting [5]) it was 0.5; in series [1] (setting [6]), 0.3; in series [1] (setting [7]) it was 1.1. Moreover, the fold induction at 10 µM in series [1] (setting [4]) is 0.7; in series [1] (setting [5]), 0.8; in series [1] (setting [6]), 1.6; in series [1] (setting [7]) it was 0.5. Also, the “Cell index (CI) MEC” value in series [2] (setting [8]) is listed as “ND (ND – not detected, magnitude of change was lower than 20%)”. Further, the “changes in CI or BR and miRNA expression, in words” value in series [2] (hiPSC-CM, 72 h, RTCA CardioECR and intracellular miRNA compared) was “did not induce either changes in CI or BR above 20% or miRNA expression above 2-fold change”. Moreover, the “RTCA, MEC (CI)” value in series [2] (hiPSC-CM) is listed as “ND (ND – not detected, magnitude of change was lower than 20% for CI/BR)”. The Cmax total in series [3] (Supplementary Table 1) is given as 4.6 µM; in series [3] (Table 1), 4.60 µM.

Turning to `CC(C)C[C@H](NC(=O)[C@H](Cc1ccccc1)NC(=O)c1cnccn1)B(O)O` [Bortezomib], in series [1], the “miRNAs hiPSC-CM pellet, MEC overall” value worked out at 0.01 µM and the “miRNAs upregulated at the MEC overall (hiPSC-CM pellet)” value (“miRNAs upregulated at the MEC overall” below) is “miR-126-3p, miR-182-5p, miR-185-3p, miR-187-3p, miR-7-5p”. Moreover, the “RTCA, MEC (CI)” value in series [2] (hiPSC-CM) came to 0.03 µM. In series [2] (human, 72 h), the “Beating Rate MEC” value was determined as 0.1 µM, the “Beating rate (BR) MEC” value amounted to 0.1 µM, the “Contractility Amplitude MEC” value is 0.1 µM and the “Field Potential Duration MEC” value came out at 0.1 µM. The “Spike Amplitude (SA) MEC” value in series [2] (human, 72 h) is 0.1 µM. In series [3] (Supplementary Table 1), the Cmax total was 0.14 to 2.8 µM. Moreover, the Cmax total in series [3] (Table 1) is 0.14 to 2.80 µM.

For the compound `CC(C)C[C@H](NC(=O)[C@H](CCc1ccccc1)NC(=O)CN1CCOCC1)C(=O)N[C@@H](Cc1ccccc1)C(=O)N[C@@H](CC(C)C)C(=O)[C@@]1(C)CO1` [Carfilzomib], in series [1] (0.3 µM, 72 h), the “hsa-miR-7-5p fold change, intracellular” value is 8.1; the “hsa-miR-29a-5p fold change, intracellular” value (“hsa-miR-29a-5p fold change” for short) is on record as 0.4; the “hsa-miR-96-5p fold change, intracellular” value came to 21.0; the “hsa-miR-126-3p fold change, intracellular” value (“hsa-miR-126-3p fold change” for short) is 2.1. Besides, in series [1] (0.3 µM, 72 h), the “hsa-miR-133b fold change, intracellular” value turned out to be 5.5; the “hsa-miR-146b-5p fold change, intracellular” value (“hsa-miR-146b-5p fold change” for short) is recorded as 0.3; the “hsa-miR-182-5p fold change, intracellular” value (from here on “hsa-miR-182-5p fold change”) came out at 12.6; the “hsa-miR-185-3p fold change, intracellular” value (“hsa-miR-185-3p fold change” for short) came to 1.1. Further, in series [1] (0.3 µM, 72 h), the “hsa-miR-187-3p fold change, intracellular” value (“hsa-miR-187-3p fold change” for short) was determined as 0.7; the “hsa-miR-208b-3p fold change, intracellular” value (“hsa-miR-208b-3p fold change” for short) is reported as 1.1; the “hsa-miR-365a-5p fold change, intracellular” value (from here on “hsa-miR-365a-5p fold change”) is 0.2. Also, in series [1] (1 µM, 72 h), the “hsa-miR-7-5p fold change, intracellular” value is 1.3; the “hsa-miR-29a-5p fold change” value was found to be 1.4; the “hsa-miR-96-5p fold change, intracellular” value is reported as 5.6; the “hsa-miR-126-3p fold change” value was determined as 0.9. Further, in series [1] (1 µM, 72 h), the “hsa-miR-133b fold change, intracellular” value was found to be 0.3; the “hsa-miR-146b-5p fold change” value stood at 0.08; the “hsa-miR-182-5p fold change” value stood at 20.8; the “hsa-miR-185-3p fold change” value came out at 9.0. Also, in series [1] (1 µM, 72 h), the “hsa-miR-187-3p fold change” value stood at 1.7; the “hsa-miR-208b-3p fold change” value is reported as 1.0; the “hsa-miR-365a-5p fold change” value amounted to 0.01. Moreover, in series [1] (3 µM, 72 h), the “hsa-miR-7-5p fold change, intracellular” value is 2.3; the “hsa-miR-96-5p fold change, intracellular” value is 10.7; the “hsa-miR-126-3p fold change” value is given as 0.5; the “hsa-miR-133b fold change, intracellular” value worked out at 0.4. In series [1] (3 µM, 72 h), the “hsa-miR-146b-5p fold change” value was 0.06; the “hsa-miR-182-5p fold change” value was 14.0; the “hsa-miR-185-3p fold change” value was determined as 3.3; the “hsa-miR-187-3p fold change” value is reported as 2.1. Further, in series [1] (3 µM, 72 h), the “hsa-miR-208b-3p fold change” value stood at 1.0 and the “hsa-miR-365a-5p fold change” value came to 0.04. Further, in series [1] (10 µM, 72 h), the “hsa-miR-7-5p fold change, intracellular” value is 3.8; the “hsa-miR-29a-5p fold change” value is on record as 0.8; the “hsa-miR-96-5p fold change, intracellular” value turned out to be 1.6; the “hsa-miR-126-3p fold change” value was determined as 0.4. In series [1] (10 µM, 72 h), the “hsa-miR-133b fold change, intracellular” value is 0.3; the “hsa-miR-146b-5p fold change” value was 0.01; the “hsa-miR-182-5p fold change” value is 5.7; the “hsa-miR-185-3p fold change” value is 0.2. Further, in series [1] (10 µM, 72 h), the “hsa-miR-187-3p fold change” value came out at 20.5; the “hsa-miR-208b-3p fold change” value was 1.0; the “hsa-miR-365a-5p fold change” value is on record as 0.02. In addition, in series [1] (fold change ≥2, 72 h), the “miRNAs upregulated at the MEC overall” value was “miR-126-3p, miR-133b, miR-182-5p, miR-184, miR-187-3p, miR-7-5p, miR-96-5p”. For the same compound, the “miRNAs hiPSC-CM pellet, MEC overall” value in series [1] (lowest concentration tested which produced miRNA upregulation (fold change ≥2), 72 h) was found to be 0.3 µM. In addition, the “effect on BR at the lowest concentration tested” value in series [2] (hiPSC-CM, 72-hour treatment) is reported as “quiescence (beat stop)”. Besides, the “Field Potential Duration MEC” value in series [2] (hiPSC-CM, 72-hour treatment, at least 10% change) came out at 0.3 µM. Further, the “Contractility Amplitude MEC” value in series [2] (hiPSC-CM, 72-hour treatment, at least 20% change) turned out to be 0.3 µM. In series [2] (setting [9]), the “Beating Rate MEC” value came to 0.3 µM and the “Cell Index MEC” value was determined as 0.3 µM. Further, the “Spike Amplitude (SA) MEC” value in series [2] (hiPSC-CM, 72-hour treatment, at least 40% change) is given as 0.3 µM. In series [2] (setting [8]), the “Beating rate (BR) MEC” value was determined as 0.3 µM and the “Cell index (CI) MEC” value amounted to 0.3 µM. Also, in series [2] (hiPSC-CM), the “RTCA, MEC (BR)” value is listed as 0.3 µM (CI, BR (Q)) and the “RTCA, MEC (CI)” value is reported as 0.3 µM (CI, BR (Q)). For the same compound, in series [3] (Supplementary Table 1), the Cmax total is given as 5.88 µM. In addition, in series [3] (Table 1), the Cmax total is reported as 5.88 µM.

Regarding `O=P1(N(CCCl)CCCl)NCCCO1` (stereo not drawn) [Cyclophosphamide], in series [1], the “miRNAs hiPSC-CM pellet, MEC overall” value is reported as 3 µM (96-5p, 182-5p, 185-3p, 208b-3p) and the “miRNAs upregulated at the MEC overall” value is recorded as 3 µM (96-5p, 182-5p, 185-3p, 208b-3p). Also, in series [2] (setting [8]), the “Beating rate (BR) MEC” value is “ND (ND – not detected, magnitude of change was lower than 20%)”. For the same compound, in series [2] (hiPSC-CM), the “RTCA, MEC (BR)” value is on record as “ND (ND – not detected, magnitude of change was lower than 20% for CI/BR)” and the “RTCA, MEC (CI)” value is “ND (ND – not detected, magnitude of change was lower than 20% for CI/BR)”. Also, the Cmax total in series [3] (Supplementary Table 1) is 126 µM. For the same compound, the Cmax total in series [3] (Table 1) is 126.00 µM.
